Source: patent publication US9597407B2, “Targeted antimicrobial moieties” (C3 Jian, Inc., priority 2009, dated 2017)
“Also recorded” adds a separate entry of the source.

Each substance was assayed on bacteria (assay: Binding of targeting peptides to microorganisms (Table 3)). Settings: microorganism bound by the targeting peptide; binding in aqueous buffers chosen by peptide solubility, preferably 1x PBS.

Substance | Target(s)
PF-187 (EIQKIAKGVSGQVYGPSRQITISKKR; Peptide with targeting and/or antimicrobial activity) | S. epidermidis and M. luteus and E. coli and MRSA
PF-189 (GNLTRSREAARATQ; Peptide with targeting and/or antimicrobial activity) | S. epidermidis and M. luteus and C. albicans and MRSA and E. faecalis and C. jejuni
PF-182 (LPATRDKTRVPASVAGAP; Peptide with targeting and/or antimicrobial activity) | S. epidermidis; also recorded: M. luteus; also recorded: E. coli; also recorded: E. faecalis; also recorded: C. jeikeium
PF-230 (EDKPTNTIQEIKPVKWQ; Peptide with targeting and/or antimicrobial activity) | S. mutans
PF-217 (DWEFTHKTIPQKK; Peptide with targeting and/or antimicrobial activity) | S. mutans
PF-216 (ESVDKITEALEEDGFPAKVQ; Peptide with targeting and/or antimicrobial activity) | S. mutans; also recorded: E. coli
PF-309 (GIPGMTAAPAEENEQEENADEE; Peptide with targeting and/or antimicrobial activity) | S. mutans; also recorded: E. coli
PF-239 (PKHNVVTGVSVDLDYKP; Peptide with targeting and/or antimicrobial activity) | S. mutans; also recorded: E. coli
PF-288 (IYQLLNIEYSEDD; Peptide with targeting and/or antimicrobial activity) | S. mutans; also recorded: E. coli
PF-201 (GCRPASLSDADPDGR; Peptide with targeting and/or antimicrobial activity) | S. epidermidis; also recorded: M. luteus; also recorded: E. coli; also recorded: C. albicans; also recorded: E. faecalis; also recorded: C. jeikeium; also recorded: C. jejuni
PF-238 (RNAVVVTEATFPKYEEEITNYLNRRFGEDWSLKLEKCSVA; Peptide with targeting and/or antimicrobial activity) | S. mutans and S. epidermidis and E. coli and P. aeruginosa and C. albicans and MRSA and S. pneumoniae and E. faecalis
PF-367 (TKTPGTFTPGTGIQKTAVPL; Peptide with targeting and/or antimicrobial activity) | B. subtilis
PF-155 (GRYGDDSKERQGRAQ; Peptide with targeting and/or antimicrobial activity) | C. jeikeium
PF-262 (DPHSEIDVTRYCQLHHFTCQTMQISEREFHYLIETQ; Peptide with targeting and/or antimicrobial activity) | S. mutans; also recorded: S. epidermidis; also recorded: M. luteus; also recorded: E. coli; also recorded: P. aeruginosa; also recorded: A. baumannii
PF-228 (NQLGSQAFAQL; Peptide with targeting and/or antimicrobial activity) | S. mutans
PF-160 (SFHASLTKNEKPIKSTG; Peptide with targeting and/or antimicrobial activity) | S. epidermidis
PF-372 (KKQDKRIEDKYKRMKKGD; Peptide with targeting and/or antimicrobial activity) | C. jeikeium; also recorded: C. jejuni
PF-181 (GIAPRRNEWGAVGGR; Peptide with targeting and/or antimicrobial activity) | S. epidermidis and M. luteus and E. coli and MRSA and E. faecalis and C. jeikeium

Same assay, conditions: microorganism the targeting peptide binds; binding in aqueous buffers that varied with peptide solubility, preferably 1x PBS

Substance | Target(s)
1T-295 (KYKLKKIIL; Peptide with targeting and/or antimicrobial activity) [Peptide 1T-295] | S. mitis; also recorded: S. salivarious; also recorded: S. sanguinis
1T-274 (ETTTEINAIKLHRIKQRSPQGTRRVN; Peptide with targeting and/or antimicrobial activity) [Peptide 1T-274] | F. nucleatum; also recorded: S. mutans; also recorded: S. oralis; also recorded: S. sanguinis

Same assay, conditions: peptide binding in aqueous buffers that varied depending on peptide solubility; preferably 1x PBS

Substance | Target(s) (microorganisms bound by the targeting peptide) | Target(s) (microorganism bound by the targeting peptide)
VYSFLYVLVIVRKLLSMKKRIERL [PF-499] | S. mutans; also recorded: E. coli | –
PF-C063 (SHFRKGD; Peptide with targeting and/or antimicrobial activity) | – | A. naeslundii; also recorded: F. nucleatum; also recorded: S. mutans
PF-C003 (FCSVDHDVITIAADHVKQGAEA; Peptide with targeting and/or antimicrobial activity) | – | A. naeslundii; also recorded: P. gingivalis; also recorded: S. mutans
PF-689 (SAPSG; Peptide with targeting and/or antimicrobial activity) | – | S. mutans; also recorded: E. coli
PF-648 (ARRYPAAGS; Peptide with targeting and/or antimicrobial activity) | – | S. mutans; also recorded: E. coli
PF-C080 (INIPGLF; Peptide with targeting and/or antimicrobial activity) | – | A. naeslundii; also recorded: F. nucleatum; also recorded: S. mutans
PF-S026 (TELKYNGEEYLLLTQRDILAVIEK; Peptide with targeting and/or antimicrobial activity) | – | S. epidermidis and MRSA and C. jeikeium
PF-727 (AYARCRHDYPFTLGQMQTH; Peptide with targeting and/or antimicrobial activity) | – | S. mutans; also recorded: E. coli
PF-501 (GSTAHKSPIGSTNNQWGMKKTPTD; Peptide with targeting and/or antimicrobial activity) | S. mutans | –
PF-777 (PGADGKLAEASAAIARLVRS; Peptide with targeting and/or antimicrobial activity) | – | Mycobacteria spp.

Same assay, conditions: peptide binding in aqueous buffers varied by peptide solubility; preferably 1x PBS

Substance | Target(s) (microorganism bound by the targeting peptide)
1T-26 (LTILPTTFFAIIVPILAVAFIAYSGFKIKGIVEHKDQW; Peptide with targeting and/or antimicrobial activity) [Peptide 1T-26] | S. mutans; also recorded: S. aureus; also recorded: S. epidermidis; also recorded: C. jeikeium; also recorded: C. xerosis; also recorded: C. striatum; also recorded: P. aeruginosa
1T-84 (FRKKRYGLSILLWLNAFTNLVNSIHAFYMTLF; Peptide with targeting and/or antimicrobial activity) [Peptide 1T-84] | S. pneumoniae
1T-22 (VPLDDGTRRPEVARNRDKDRED; Peptide with targeting and/or antimicrobial activity) [Peptide 1T-22] | S. epidermidis; also recorded: P. aeruginosa
1T-126 (QGLARPVLRRIPL; Peptide with targeting and/or antimicrobial activity) [Peptide 1T-126] | S. gordonii; also recorded: S. mitis; also recorded: S. mutans
1T-27 (ALFVSLEQFLVVVAKSVFALCHSGTLS; Peptide with targeting and/or antimicrobial activity) [Peptide 1T-27] | S. mutans; also recorded: S. aureus; also recorded: S. epidermidis; also recorded: C. jeikeium; also recorded: C. xerosis; also recorded: C. striatum; also recorded: P. aeruginosa
1T-104 (RAVAAHLQGRHHGHQVRRQRHGQR; Peptide with targeting and/or antimicrobial activity) [Peptide 1T-104] | S. mitis
1T-72 (EPTDGVACKER; Peptide with targeting and/or antimicrobial activity) [Peptide 1T-72] | P. aeruginosa
1T-145 (VEAGKRNISLENIEKISKGLGISISELFKYIEEGEDKIG; Peptide with targeting and/or antimicrobial activity) [Peptide 1T-145] | S. mitis; also recorded: S. mutans; also recorded: S. oralis
1T-75 (GVARGLQLGIKTRTQWGAATGAA; Peptide with targeting and/or antimicrobial activity) [Peptide 1T-75] | S. pneumoniae
1T-46 (FSFKQRVMFRKEVERLR; Peptide with targeting and/or antimicrobial activity) [Peptide 1T-46] | S. aureus; also recorded: S. epidermidis; also recorded: C. jeikeium; also recorded: C. xerosis; also recorded: C. striatum; also recorded: P. aeruginosa
1T-68 (GGTKEIVYQRG; Peptide with targeting and/or antimicrobial activity) [Peptide 1T-68] | S. mutans; also recorded: S. aureus; also recorded: C. jeikeium; also recorded: C. xerosis; also recorded: C. striatum; also recorded: P. aeruginosa
1T-35 (EICLTLVFPIRGSYSEAAKFPVPIHIVEDGTVELPK; Peptide with targeting and/or antimicrobial activity) [Peptide 1T-35] | P. aeruginosa
1T-83 (QKPRKNETFIGYIQRYDIDGNGYQSLPCPQN; Peptide with targeting and/or antimicrobial activity) [Peptide 1T-83] | S. pneumoniae
1T-185 (HYHFLLEFGFHKGDYLE; Peptide with targeting and/or antimicrobial activity) [Peptide 1T-185] | A. naeslundii; also recorded: F. nucleatum; also recorded: P. gingivalis
1T-69 (ILSQEADRKKLF; Peptide with targeting and/or antimicrobial activity) [Peptide 1T-69] | S. mutans; also recorded: P. aeruginosa
1T-109 (VTTNVRQGAGS; Peptide with targeting and/or antimicrobial activity) [Peptide 1T-109] | A. naeslundii; also recorded: S. epidermidis; also recorded: S. gordonii; also recorded: S. mitis; also recorded: S. mutans; also recorded: S. oralis; also recorded: S. salivarious; also recorded: S. sanguinis
